Columns and labels:
[1] = tested on: proto type galectin from domestic cow (Bos taurus); conditions: relative to Galβ1,4Glc = 1.0; comparison values, reference not given; cited from earlier work
[2] = tested on: proto type galectin from toad (Bufo arenarum); conditions: relative to Galβ1,4Glc = 1.0; comparison values, reference not given; cited from earlier work
Msgal1-L1 = test: Solid-phase binding-inhibition assay: rMsgal1-L1-HRP binding to asialofetuin (ASF) inhibited by carbohydrates; parameters: species or system Morone saxatilis; conditions: for Relative inhibitory activity, Morone saxatilis: I50 normalized to Galβ1,4Glc (lactose) = 1.0, rMsgal1-L1-HRP binding to ASF, pH 8.0, 23°C, 10 mM ME
Procedure: Binding of the rMsgal1-L1–HRP to asialofetuin (ASF) and its inhibition by carbohydrates were assessed and optimized as reported elsewhere ([Ahmed et al., 1996], [2002]). […] Thus, the inhibition of galectin binding to immobilized ASF by mono- and oligosaccharides is a standard system to analyze the fine specificity of novel galectins. Briefly, ASF (0.5 μg/100 μl/well) in 0.1 M Na2CO3/0.02% NaN3 (pH 9.6) was adsorbed onto the plastic wells (37°C, 3 h) and the bound glycoprotein was fixed with 2% formaldehyde (37°C, 30 min). The plates were washed three times with PBS (azide-free)/0.05% Tween 20, and incubated with the Msgal1-L1–HRP conjugate (10 ng/100 μl/well for binding assays) or with a pre-incubated mixture of equal volume of conjugate and varying concentrations of test ligands (for binding-inhibition assays). After incubation (4°C, 1 h) the plates were washed with ice-cold azide-free PBS-Tween 20 buffer and the bound peroxidase activity was assayed with 2,2’-azino-bis(3-ethylbenzothiazoline-6-sulfonic acid) (ABTS) as previously described ([Ahmed et al., 1996]).
The carbohydrate-binding specificity of Msgal1-L1 was determined by analyzing the binding of the rMsgal1-L1–HRP conjugate to ASF in the presence of several saccharides in a solid-phase assay under the optimal conditions of pH and temperature established above (pH 8.0; 23°C) and under a reducing environment (10 mM ME) ([Ahmed et al., 1996], [2002]). For each test saccharide, a complete inhibition curve was obtained, and the molar concentrations that inhibited the binding of the lectin conjugate to ASF by 50% (I 50) were calculated and normalized with respect to Galβ1,4Glc (lactose), which was included in each plate as a standard ( Table 2 ). The binding-inhibition profile for Msgal1-L1 was generally similar to those for proto type galectins from zebrafish (D. rerio), toad (B. arenarum), and domestic cow (Bos taurus). […] The presence of a fucose unit linked in α1,2 to the non-reducing Gal moiety decreased the inhibitory effectiveness in about one-third as compared to lactose, most likely by steric hindrance of the protein–Gal interaction. […] A hydrophobic phenyl group linked to the reducing end of Galβ1,3GlcNAc strengthened the Msgal1-L1 interaction with the ligand 6.5-fold.

[3] = tested on: proto type galectin from zebrafish (Danio rerio); conditions: relative to Galβ1,4Glc = 1.0; comparison values, reference not given; cited from earlier work
[4] = tested on: striped bass epidermal mucus; test: Dot blot binding to untreated and glycosidase-treated epidermal mucus fractions; parameters: species or system Morone saxatilis; conditions: pre-incubation of rMsgal1-L1 with lactose 200 mM; inhibition not complete
Procedure: The crude epidermal mucus was cleared of particulate matter and fractionated by centrifugation at 17,000 rpm for 45 min at 4°C, resulting in three distinct layers: a clear upper layer of lower viscosity, an opaque more viscous layer immediately below that likely contain the highest concentration of mucins, and a loose pellet of solid cellular debris. Fractions obtained from multiple centrifugations were separated and corresponding layers were pooled as “clear upper layer pool” and “viscous intermediate layer pool.”
Pooled mucus layers were treated with N-glycosidase F [peptide-N ^4-(acetyl-β-glucosaminyl) asparagine amidase], O-glycosidase (O-glycopeptide endo-D-galactosyl-N-acetyl-α-galactosamino hydrolase, Roche), endoglycosidase H, or all three enzymes combined. […]
Aliquots (100 μL/well) of untreated or glycosidase-treated epidermal mucus pooled layers were dot-blotted onto PVDF membranes using a Bio-Dot Microfiltration Apparatus (Bio-Rad) under vacuum in replicate wells. […] For detection of endogenous ligands for Msgal1-L1, the membranes were blocked in 5% BSA/PBS, probing with rMsgal1-L1–HRP with or without lactose (200 mM), and detected with Stable-DAB (Invitrogen).

CO[C@@H]1O[C@H](CO)[C@@H](O[C@@H]2O[C@H](CO)[C@H](O)[C@H](O)[C@H]2O)[C@H](O)[C@H]1O [Galβ1,4Glcβ(1-0)Me]
Relative inhibitory activity, Bos taurus [1]: 1.33
Relative inhibitory activity, Bufo arenarum [2]: 2.14
Relative inhibitory activity, Morone saxatilis (Msgal1-L1): 1.74
Relative inhibitory activity, Danio rerio [3]: 2.9

OC[C@H]1O[C@@H](O[C@H]2[C@H](O)[C@@H](O)[C@H](O)O[C@@H]2CO)[C@H](O)[C@@H](O)[C@H]1O [Galβ1,4Glc, lactose]
Relative inhibitory activity, Bos taurus [1]: 1.0
Relative inhibitory activity, Bufo arenarum [2]: 1.0
Relative inhibitory activity, Morone saxatilis (Msgal1-L1): 1.0
Relative inhibitory activity, Danio rerio [3]: 1.0
Inhibition of Msgal1-L1 binding to mucus layers [4]: substantially reduced

CC(=O)N[C@H]1[C@H](Oc2ccc([N+](=O)[O-])cc2)O[C@H](CO)[C@@H](O)[C@@H]1O[C@@H]1O[C@H](CO)[C@H](O)[C@H](O)[C@H]1O [Galβ1-3GlcNacβ-OPhNO2 (p)]
Relative inhibitory activity, Bos taurus [1]: 4.5
Relative inhibitory activity, Bufo arenarum [2]: 1.78
Relative inhibitory activity, Morone saxatilis (Msgal1-L1): 6.5
Relative inhibitory activity, Danio rerio [3]: 2.3

OC[C@H]1O[C@@H](S[C@@H]2O[C@H](CO)[C@H](O)[C@H](O)[C@H]2O)[C@H](O)[C@@H](O)[C@H]1O [Galβ1S1βGal, Thiodigalactoside]
Relative inhibitory activity, Bos taurus [1]: 9.0
Relative inhibitory activity, Bufo arenarum [2]: 3.9
Relative inhibitory activity, Morone saxatilis (Msgal1-L1): 10.0
Relative inhibitory activity, Morone saxatilis (Msgal1-L1; listed as Thiodigalactoside): approximately 10
Relative inhibitory activity, Danio rerio [3]: 12.2

OC[C@H]1O[C@@H](O[C@H]2[C@H](O)[C@H](O)C(O)O[C@@H]2CO)[C@H](O)[C@@H](O)[C@H]1O (stereo partly shown) [Galβ1,4Man]
Relative inhibitory activity, Bos taurus [1]: 2.34
Relative inhibitory activity, Bufo arenarum [2]: 2.5
Relative inhibitory activity, Morone saxatilis (Msgal1-L1): 1.74
Relative inhibitory activity, Danio rerio [3]: 1.5

CC(=O)N[C@H]1C(O)O[C@H](CO)[C@@H](O[C@@H]2O[C@H](CO)[C@H](O)[C@H](O)[C@H]2O)[C@@H]1O (stereo partly shown) [Galβ1,4GlcNac, N-acetyllactosamine]
Relative inhibitory activity, Bos taurus [1]: 5.54
Relative inhibitory activity, Bufo arenarum [2]: 3.75
Relative inhibitory activity, Morone saxatilis (Msgal1-L1): 3.07
Relative inhibitory activity, Morone saxatilis (Msgal1-L1; listed as Galβ1,4GlcNAc): approximately 3
Relative inhibitory activity, Danio rerio [3]: 7.9

Galβ1,6GlcNAc
Relative inhibitory activity, Bos taurus [1]: 0.12
Relative inhibitory activity, Bufo arenarum [2]: 0.83
Relative inhibitory activity, Morone saxatilis (Msgal1-L1): 0.225
Relative inhibitory activity, Danio rerio [3]: 0.03

CC(=O)N[C@H]1[C@@H](O[C@H]2[C@@H](O)[C@@H](CO)O[C@@H](O)[C@@H]2O[C@@H]2O[C@@H](C)[C@@H](O)[C@@H](O)[C@@H]2O)O[C@H](CO)[C@H](O)[C@@H]1O [A-trisaccharide]
Fold less effective than lactose as inhibitor (Msgal1-L1; Msgal1-L1 binding to ASF): threefold less effective

CO[C@H]1[C@H](O[C@H]2[C@H](O)[C@@H](O)C(O)O[C@@H]2CO)O[C@H](CO)[C@H](O)[C@@H]1O (stereo partly shown) [MeO-2Galβ1,4Glc]
Relative inhibitory activity, Bos taurus [1]: 4.08
Relative inhibitory activity, Bufo arenarum [2]: 2.5
Relative inhibitory activity, Morone saxatilis (Msgal1-L1): 3.33
Relative inhibitory activity, Danio rerio [3]: 2.9

OC[C@H]1O[C@@H](O[C@H]2[C@@H](O)COC(O)[C@@H]2O)[C@H](O)[C@@H](O)[C@H]1O (stereo partly shown) [Galβ1,3Ara]
Relative inhibitory activity, Bos taurus [1]: 2.56
Relative inhibitory activity, Bufo arenarum [2]: 1.28
Relative inhibitory activity, Morone saxatilis (Msgal1-L1): 4.10
Relative inhibitory activity, Danio rerio [3]: 2.1

CO[C@@H]1O[C@H](CO)[C@H](O)[C@H](O)[C@H]1O [Galβ-OMe]
Relative inhibitory activity, Bos taurus [1]: 0.0044
Relative inhibitory activity, Bufo arenarum [2]: 0.006
Relative inhibitory activity, Morone saxatilis (Msgal1-L1): 0.009
Relative inhibitory activity, Danio rerio [3]: 0.004

Fucα1,2Galβ1,4Glc
Relative inhibitory activity, Bos taurus [1]: 0.36
Relative inhibitory activity, Bufo arenarum [2]: 0.17
Relative inhibitory activity, Morone saxatilis (Msgal1-L1): 0.33
Relative inhibitory activity, Danio rerio [3]: 0.35

Nc1ccc(O[C@@H]2O[C@H](CO)[C@@H](O[C@@H]3O[C@H](CO)[C@H](O)[C@H](O)[C@H]3O)[C@H](O)[C@H]2O)cc1 [Galβ1,4Glcβ-OPhNH2 (p)]
Relative inhibitory activity, Bos taurus [1]: 1.48
Relative inhibitory activity, Bufo arenarum [2]: 1.71
Relative inhibitory activity, Morone saxatilis (Msgal1-L1): 2
Relative inhibitory activity, Danio rerio [3]: 1.4

OC[C@H]1O[C@@H](O[C@@H]2[C@@H](CO)O[C@](O)(CO)[C@H]2O)[C@H](O)[C@@H](O)[C@H]1O [Galβ1,4Fru f]
Relative inhibitory activity, Bufo arenarum [2]: 1.0
Relative inhibitory activity, Morone saxatilis (Msgal1-L1): 1.9
Relative inhibitory activity, Danio rerio [3]: 1.0

CO[C@H]1O[C@H](CO)[C@H](O)[C@H](O)[C@H]1O [Galα-OMe]
Relative inhibitory activity, Bos taurus [1]: 0.01
Relative inhibitory activity, Bufo arenarum [2]: 0.03
Relative inhibitory activity, Morone saxatilis (Msgal1-L1): 0.027
Relative inhibitory activity, Danio rerio [3]: 0.006

CC(=O)N[C@H]1[C@H](O[C@H]2[C@H](O)[C@@H](CO)OC(O)[C@@H]2O)O[C@H](CO)[C@H](O)[C@@H]1O (stereo partly shown) [GalNacβ1,3Glc]
Relative inhibitory activity, Bufo arenarum [2]: 4.45
Relative inhibitory activity, Morone saxatilis (Msgal1-L1): 2.8

O=C[C@H](O)[C@@H](O)[C@@H](O)[C@H](O)CO [Gal, D-galactose]
Relative inhibitory activity, Bos taurus [1]: 0.0079
Relative inhibitory activity, Bufo arenarum [2]: 0.005
Relative inhibitory activity, Morone saxatilis (Msgal1-L1): 0.007
Relative inhibitory activity, Danio rerio [3]: 0.004

CC(=O)N[C@H]1C(O)O[C@H](CO)[C@H](O)[C@@H]1OC1O[C@H](CO)[C@H](O)[C@H](O)[C@H]1O (stereo partly shown) [Gal1,3GalNAc]
Inhibitory effect (in words) (Msgal1-L1; Msgal1-L1 binding inhibition): negligible

OC[C@H]1O[C@H](OCC2O[C@@H](O)[C@H](O)[C@@H](O)[C@@H]2O)[C@H](O)[C@@H](O)[C@H]1O (stereo partly shown) [Galα1,6Glc]
Relative inhibitory activity, Bos taurus [1]: 0.0053
Relative inhibitory activity, Bufo arenarum [2]: 0.0075
Relative inhibitory activity, Morone saxatilis (Msgal1-L1): 0.019
Relative inhibitory activity, Danio rerio [3]: 0.004
